# Results taken from patent US20120100990A1, “4 -AMINOPICOLINATES AND THEIR USE AS HERBICIDES” (SYNGENTA CROP PROTECTION LLC, priority 2009, published 2012).
# What was measured:
# Format in all cases: in vivo
# [1] = system: Echinochloa crus-galli (ECHCG); assay: Pre-emergence biological efficacy, glasshouse pot test; settings: 312 h, 1,000 g/ha, evaluated after 13 days, 100=total damage, 0=no damage, read-out: Percentage damage caused to weed species, pre-emergence, ECHCG
# How it was run: (§1)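 Damage ratings (0 no damage to 100 total damage) were taken 13 days after treatment. Compound had been applied at 1000 or 250 g/ha as an aqueous spray from acetone/water (50:50) with 0.5% Tween 20, one day after sowing in soil.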
# [2] = system: Alopecurus myosuroides (ALOMY); assay: as above; settings: 312 h, 1,000 g/ha, evaluated after 13 days, 100=total damage, 0=no damage, read-out: Percentage damage caused to weed species, pre-emergence, ALOMY
# How it was run: as §1
# Solanum nigrum (SOLNI) [3] = assay: as above; settings: 312 h, 1,000 g/ha, evaluated after 13 days, 100=total damage, 0=no damage, read-out: Percentage damage caused to weed species, pre-emergence, SOLNI
# How it was run: as §1
# [4] = system: Ipomea hederaceae (IPOHE); assay: as above; settings: Ipomoea hederacea, 312 h, 1,000 g/ha, evaluated after 13 days, 100=total damage, 0=no damage, read-out: Percentage damage caused to weed species, pre-emergence, IPOHE
# How it was run: as §1
# Setaria faberi (SETFA) [5] = assay: as above; settings: 312 h, 1,000 g/ha, evaluated after 13 days, 100=total damage, 0=no damage, read-out: Percentage damage caused to weed species, pre-emergence, SETFA
# How it was run: as §1
# [6] = system: Amaranthus retroflexus (AMARE); assay: as above; settings: 312 h, 1,000 g/ha, evaluated after 13 days, 100=total damage, 0=no damage, read-out: Percentage damage caused to weed species, pre-emergence, AMARE
# How it was run: as §1
# [7] = system: Echinochloa crus-galli (ECHCG); assay: Post-emergence biological efficacy, glasshouse pot test; settings: 312 h, 1,000 g/ha, evaluated after 13 days, 100=total damage, 0=no damage, read-out: Percentage damage caused to weed species, post-emergence, ECHCG
# How it was run: (§2)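 Weed seedlings raised in standard soil for 8 days in glasshouse (24/16 °C day/night, 14 h light, 65% humidity) were sprayed with compound in acetone/water (50:50) with 0.5% Tween 20 at 1000 or 250 g/ha. Damage scored visually after 13 days (0 = none, 100 = total).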
# [8] = system: Alopecurus myosuroides (ALOMY); assay: as above; settings: 312 h, 1,000 g/ha, evaluated after 13 days, 100=total damage, 0=no damage, read-out: Percentage damage caused to weed species, post-emergence, ALOMY
# How it was run: as §2
# Solanum nigrum (SOLNI) [9] = assay: as above; settings: 312 h, 1,000 g/ha, evaluated after 13 days, 100=total damage, 0=no damage, read-out: Percentage damage caused to weed species, post-emergence, SOLNI
# How it was run: as §2
# [10] = system: Ipomea hederaceae (IPOHE); assay: as above; settings: Ipomoea hederacea, 312 h, 1,000 g/ha, evaluated after 13 days, 100=total damage, 0=no damage, read-out: Percentage damage caused to weed species, post-emergence, IPOHE
# How it was run: as §2
# Setaria faberi (SETFA) [11] = assay: as above; settings: 312 h, 1,000 g/ha, evaluated after 13 days, 100=total damage, 0=no damage, read-out: Percentage damage caused to weed species, post-emergence, SETFA
# How it was run: as §2
# [12] = system: Amaranthus retroflexus (AMARE); assay: as above; settings: 312 h, 1,000 g/ha, evaluated after 13 days, 100=total damage, 0=no damage, read-out: Percentage damage caused to weed species, post-emergence, AMARE
# How it was run: as §2
SMILES,pest or weed control at 1000 g/ha [1] [%],pest or weed control at 1000 g/ha [2] [%],pest or weed control at 1000 g/ha (Solanum nigrum (SOLNI) [3]) [%],pest or weed control at 1000 g/ha [4] [%],pest or weed control at 1000 g/ha (Setaria faberi (SETFA) [5]) [%],pest or weed control at 1000 g/ha [6] [%],pest or weed control at 1000 g/ha [7] [%],pest or weed control at 1000 g/ha [8] [%],pest or weed control at 1000 g/ha (Solanum nigrum (SOLNI) [9]) [%],pest or weed control at 1000 g/ha [10] [%],pest or weed control at 1000 g/ha (Setaria faberi (SETFA) [11]) [%],pest or weed control at 1000 g/ha [12] [%]
"COC(=O)c1nc(Cl)cc(NCC2CCCCC2)c1Cl [Compound 67-2, 4- Cyclohexylmethyl amino-3,6-dichloro-pyridine-2-carboxylic acid methyl ester]",10,20,90,80,60,100,20,30,100,70,20,100
"C=Cc1c(NCC2CCCCC2)cc(Cl)nc1C(=O)OC [Compound 67-12, 6-Chloro-4-cyclohexylmeth-ylamino-3-ethenyl-pyridine-2-carboxylic acid methyl ester]",10,10,80,60,0,100,20,10,80,60,20,90
"COC(=O)c1nc(Cl)cc(NC[C@@H]2CCCC[C@H]2O)c1Cl [Compound 68-2, 3,6-Dichloro-pyridine-4-[trans-(2-hydroxycyclohexyl-methyl)-amino]-2-carboxylic acid methyl ester]",0,70,100,90,80,100,20,40,100,70,70,100
"COC(=O)c1nc(Cl)cc(NCC2CCCCCCC2)c1Cl [Compound 69-2, 4-Cyclooctylmethyl-amino-3,6-dichloro-pyridine-2-carboxylic acid methyl ester]",10,20,100,80,10,90,0,10,90,70,0,100
"COC(=O)c1nc(Cl)cc(NCC2CCCO2)c1Cl (stereo not drawn) [Compound 70-2, 3,6-Dichloro-4-(tetrahydrofuran-2-ylmethylamino)-pyridine-2-carboxylic acid methyl ester]",20,30,100,70,80,100,30,40,100,70,60,100
"CCN1CCCC1CNc1cc(Cl)nc(C(=O)OC)c1Cl (stereo not drawn) [Compound 71-2, 3,6-Dichloro-4-[(N-ethyl-pyrrolidin-2-ylmethyl)-amino]-pyridine-2-carboxylic acid methyl ester]",20,70,100,100,80,100,20,20,100,60,50,100
"COC(=O)c1nc(Cl)cc(NCc2ccccc2Br)c1Cl [Compound 72-2, 4-[(2-Bromophenyl-methyl)-amino]-3,6-dichloro-pyridine-2-carboxylic acid methyl ester]",10,30,100,80,30,90,10,20,100,70,70,100
"COC(=O)c1nc(Cl)cc(NCc2ccccc2OC)c1Cl [Compound 73-2, 3,6-Dichloro-4-[(2-methoxyphenyl-methyl)-amino]-pyridine-2-carboxylic acid methyl ester]",20,50,100,100,80,100,40,40,90,70,80,100
"C=Cc1c(NCc2ccccc2OC)cc(Cl)nc1C(=O)OC [Compound 73-12, 6-Chloro-3-ethenyl-4-[(2-methoxyphenyl-methyl)-amino]-pyridine-2-carboxylic acid methyl ester]",20,70,100,70,80,100,20,20,90,50,80,100
"COC(=O)c1nc(Cl)cc(NCc2ccccc2C(F)(F)F)c1Cl [Compound 74-2, 3,6-Dichloro-4-[(2-trifluoromethyl-phenylmethyl)-amino]-pyridine-2-carboxylic acid methyl ester]",0,0,90,70,10,90,0,10,100,60,0,100
"C=Cc1c(NCc2ccccc2C(F)(F)F)cc(Cl)nc1C(=O)OC [Compound 74-12, 6-Chloro-3-ethenyl-4-[(2-trifluoromethyl-phenylmethyl)-amino]-pyridine-2-carboxylic acid methyl ester]",0,0,0,0,0,0,20,10,70,10,10,100
